Measured values published in patent US20090280196A1, “CISSUS […] PLANT EXTRACTS FOR TREATING OSTEOPOROSIS AND THE EXTRACTION PROCESS THEREOF” (priority 2006, published 2009).

Columns and labels:
[1] = system: osteoclasts (osteoclastic bone resorption); experiment: Bone resorption hit screening, CTX release from osteoclasts on bovine bone slices; format: cell-based, human; conditions: positive control, V-ATPase blocker, concentration not given
Description: Studies have determined that osteoclasts are largely derived from CD14 positive monocytes (J. Haemotol, 1999 July; 106(1):167-70). Clonal analysis of haematopoietic cells by surface phenotypes has been used to further identify osteoclast precursor by characterizing osteoclast like cells distinct from other haematopoietic progenitors (Lee et. al; 1992b Muguruma & Lee; 1988). Surface phenotype analysis has shown that human osteoclasts are derived from CD14 monocytes (Massey & Flanagan, 1999). CD 14 marker is strongly expressed on monocytes, the putative osteoclast precursor in peripheral blood and CD14 positive monocytes have been selected for osteoclastogenesis. (Clin. Sci (Lond) 2000, August, 99(2): 133-40).
The osteoclasts were isolated as CD14 positive monocytes and differentiated into osteoclasts for 10-12 days. Hereafter, the osteoclasts were lifted by trypsin, counted and seeded on bovine bone slices at a density of 40000 cells per bone slice. The osteoclasts were seeded on the bone slices for one day before the plant extracts were added. The osteoclasts were hereby allowed to attach and initiate resorption. […]
The bone resorption experiment was ended after 5 days of incubation and the cell viability was measured by the use of the AlamarBlue assay. Bone resorption was evaluated as the determination of the CTX release.

[2] = cited from earlier work

| SMILES | inhibition of osteoclastic bone resorption compared to DMSO [1] | increase of bone mineral density in the spine ([2]; in 18 months, once daily subcutaneous injection) [%] | reduction of the risk of fracture ([2]; patients) [%] |
| --- | --- | --- | --- |
| CO/C1=C\C(C)=C\[C@@H](C)[C@@H](O)[C@@H](C)C/C(C)=C/C=C/[C@H](OC)[C@@H]([C@@H](C)[C@@H](O)[C@H](C)[C@@]2(O)C[C@@H](O)[C@H](C)[C@@H](C(C)C)O2)OC1=O [Bafilomycin] | approximately 80% |  |  |
| CC[C@H](C)[C@H](NC(=O)[C@H](CCC(=O)O)NC(=O)[C@H](CO)NC(=O)[C@@H](NC(=O)[C@@H](N)CO)C(C)C)C(=O)N[C@@H](CCC(N)=O)C(=O)N[C@@H](CC(C)C)C(=O)N[C@@H](CCSC)C(=O)N[C@@H](Cc1cnc[nH]1)C(=O)N[C@@H](CC(N)=O)C(=O)N[C@@H](CC(C)C)C(=O)NCC(=O)N[C@@H](CCCCN)C(=O)N[C@@H](Cc1cnc[nH]1)C(=O)N[C@@H](CC(C)C)C(=O)N[C@@H](CC(N)=O)C(=O)N[C@@H](CO)C(=O)N[C@@H](CCSC)C(=O)N[C@@H](CCC(=O)O)C(=O)N[C@@H](CCCN=C(N)N)C(=O)N[C@H](C(=O)N[C@@H](CCC(=O)O)C(=O)N[C@@H](Cc1c[nH]c2ccccc12)C(=O)N[C@@H](CC(C)C)C(=O)N[C@@H](CCCN=C(N)N)C(=O)N[C@@H](CCCCN)C(=O)N[C@@H](CCCCN)C(=O)N[C@@H](CC(C)C)C(=O)N[C@@H](CCC(N)=O)C(=O)N[C@@H](CC(=O)O)C(=O)N[C@H](C(=O)N[C@@H](Cc1cnc[nH]1)C(=O)N[C@@H](CC(N)=O)C(=O)N[C@@H](Cc1ccccc1)C(=O)O)C(C)C)C(C)C [teriparatide] |  | ≤ 13 | ≤ 90 |
